For 103 molecules, cytotoxicity results are on record in ChEMBL document CHEMBL3507680, “University of Dundee, Gates Library screen for HepG2 cell viability”.

A short description of this series: Human HepG2 cell viability assay in 384 well format. The class given is toxicity, cell-based. The arrangement: dose 125 nL, time 70.5 hour; concentration not given beside the values. The conditions noted are these: HepG2 cells, read-out: Inhibition.

Molecules are shown by their SMILES.

As to `CCNC(=O)NC(=O)C(C)N1CCCc2cc(OC)ccc2C1` (stereo not drawn), the cytotoxicity at 70.5 h is -10.4%.
As to `CCNC(=O)C1CCCN(C(=O)Nc2ccc3c(c2)CCCN3C)C1` (stereo not drawn), the cytotoxicity at 70.5 h is -9.82%.
As for `COc1cc2c(cc1OC)S(=O)(=O)N(Cc1ccccc1C)C2=O`, the cytotoxicity at 70.5 h turned out to be 23.7%.
In the case of `CC(C)Oc1ccc(CNC(=O)c2cc(C(N)=O)cs2)cc1F` it was -12.2%; in that of `CC(C)NC(=O)CNC(=O)OC(C)(C)C`, -13%; in that of `CCc1ncncc1C(=O)Nc1ccc2ccn(CCN(C)C)c2c1`, -9.77%.
With `Cc1ncccc1C(=O)Nc1ccc2ccn(CCN(C)C)c2c1`, the cytotoxicity at 70.5 h is -4.81%.
Take `O=C(NCCNc1ccc(Br)cn1)c1ccc(O)cc1`: the cytotoxicity at 70.5 h was -6.46%.
On to `O=C(c1ccncc1)N1CCN(C(=O)c2coc3ccccc23)CC1`, for which the cytotoxicity at 70.5 h is -11%.
Take `CC(C)C[C@H](NC(=O)CNC(=O)OC(C)(C)C)C(=O)OC(C)(C)C`: the cytotoxicity at 70.5 h was -0.919%.
As to `OCC(O)CSCc1nnc(-c2cccc(F)c2)o1` (stereo not drawn), the cytotoxicity at 70.5 h is -14.7%.
Turning to `CCS(=O)(=O)CC(C)N(C)C(=O)NCCc1cccc(F)c1F` (stereo not drawn), the cytotoxicity at 70.5 h was -5.89%.
Next, `N#Cc1cccnc1NCc1cccc(C(=O)NCC2CCCCO2)c1` (stereo not drawn): -10.4%; `COC(=O)C(C)N1CCCc2cc(OC)ccc2C1` (stereo not drawn): -4.67%.
On to `O=C(NCCNc1cncc(Br)c1)c1ccc(O)cc1`, for which the cytotoxicity at 70.5 h is -8.4%.
`O=C(NCCc1cccs1)N1CCCC1CCCO` (stereo not drawn): the cytotoxicity at 70.5 h was -9.42%.
Consider `CCCc1nn(C2CCN(C(C)C)C2=O)c(=O)o1` (stereo not drawn), for which the cytotoxicity at 70.5 h is -1.04%.
Next, `COc1cccc(CNc2nc(C)cc(C)n2)c1OC`: -2.87%; `CC(NC(=O)Cn1cc(C(N)=O)c(-c2ccccc2)n1)C1CC1` (stereo not drawn): -10%; `CCCN(C(=O)c1cnns1)C1CCCN(Cc2ccccc2)C1` (stereo not drawn): -7.29%.
Take `CCOc1ccccc1C(CC(=O)N(C)C)NC(C)=O` (stereo not drawn): the cytotoxicity at 70.5 h is -0.953%.
In the case of `CCOc1ccccc1C(CC(=O)N(C)c1ccccc1)NC(C)=O` (stereo not drawn), the cytotoxicity at 70.5 h is 15.9%.
For the molecule `Cn1cnc2c1CCN(CCOc1ccc3c(c1)CCC(=O)N3)C2`, the cytotoxicity at 70.5 h is -12.1%.
With `O=C(Nc1ccc(CCN2CCSCC2)cc1)NC1CC1`, the cytotoxicity at 70.5 h was -11.9%.
Next, `CN1CCOC(CNCc2c(Cl)nc3ccccn23)C1` (stereo not drawn): -19.2%.
For `Cc1cc(C)n(C2CN(CC(=O)NCc3ccccn3)C2)n1`, the cytotoxicity at 70.5 h is -16.2%.
With `O=C(CCc1nc(C2CC2)no1)c1ccc2c(c1)OCCO2`, the cytotoxicity at 70.5 h is -16.9%.
As for `CC(C(=O)Nc1cc(F)ccc1F)N1CCN(Cc2ncc[nH]2)CC1` (stereo not drawn), the cytotoxicity at 70.5 h was determined as 42.5%.
In the case of `O=C(COc1ccccc1NCc1ccc(F)cc1)N1CCOCC1` it was -20.5%; in that of `COc1ccc(C(=O)CCc2nc(C3CC3)no2)cc1F`, -13.6%.
In the case of `NC(=O)c1ccc(OCC(=O)N2CCCC2c2ccc[nH]2)cc1` (stereo not drawn) it was 42.3%.
As for `O=C(Cn1ncc2ccccc21)Nc1ccnn1CC1CCOC1` (stereo not drawn), the cytotoxicity at 70.5 h was -23.1%.
As to `O=C1NC(c2cnc(C3CCC3)s2)Nc2ccccc21` (stereo not drawn), the cytotoxicity at 70.5 h was -9.55%.
Consider `Cc1cc(NC(=O)NCC2(O)CCCC2)ccn1`, for which the cytotoxicity at 70.5 h is -14%.
In the case of `CN(Cc1cnccn1)S(=O)(=O)c1ccc(C(F)(F)F)nc1`, the cytotoxicity at 70.5 h was found to be 36.5%.
On to `CC(C)c1noc(CCNC(=O)N2CCSC(C(C)C)C2)n1` (stereo not drawn), for which the cytotoxicity at 70.5 h is -3.03%.
In the case of `Cc1nnnn1-c1cc(NCc2cc(C#N)ccc2F)ccc1F` it was -10.8%.
`COC(=O)CCN(C)Cc1cc(Br)cs1`: the cytotoxicity at 70.5 h is -21.1%.
On to `CC(C)c1noc(CCC(=O)N2CCSCC2)n1`, for which the cytotoxicity at 70.5 h is -18.8%.
In the case of `CCN(C(C)=O)C(c1ccc(Cl)cc1)c1ccccn1` (stereo not drawn) it was -14.6%; in that of `COCCC1(CNC(=O)Nc2ccnc(C)c2)CCCC1`, -20.4%; in that of `CC1CN(C)CCN1Cc1cccc(C(=O)NCc2ccco2)c1` (stereo not drawn), 27.4%.
In the case of `Cc1ccc(N2CCCC(N3CCC(CO)CC3)C2=O)cc1` (stereo not drawn) it was 12.9%; in that of `CCCN1CCC(C(=O)NCCN(CC)c2ccccc2C)CC1`, 17.6%.
Next, `Cn1ncc2cnn(CC(O)COc3cccc4[nH]ccc34)c2c1=O` (stereo not drawn): 39.5%.
On to `O=C(NCCCOCC1CC1)Nc1ccc(F)cc1`, for which the cytotoxicity at 70.5 h is 0.857%.
In the case of `COc1ccc(C)cc1NC(=O)CNc1ccn(CC(N)=O)n1` it was -9.21%; in that of `CS(=O)(=O)N1CCN(C(=O)c2[nH]c3ccc(Cl)cc3c2Cl)CC1`, -6.15%.
In the case of `COc1cc(Cl)c(C)cc1NC(=O)CNc1ccn(CC(N)=O)n1` it was -7.27%; in that of `CC(=O)N1CCN(C(=O)C(C)Nc2ccc3ncsc3c2)CC1` (stereo not drawn), 0.285%; in that of `CNC(=O)NC(=O)COc1c(C(C)=O)ccc(Cl)c1Cl`, -9.38%.
With `CC(=O)c1ccc(Cl)c(Cl)c1OCC(=O)NC(C)C`, the cytotoxicity at 70.5 h was -6.15%.
Turning to `CNC(=O)COc1c(C(C)=O)ccc(Cl)c1Cl`, the cytotoxicity at 70.5 h was -8.98%.
In the case of `CC(=O)c1cccc(NC(=O)NCCOCC2CC2)c1` it was -6.67%.
Next, `O=C(NCc1ccco1)c1cccc(CN2CCCC2CO)c1` (stereo not drawn): -8.88%.
`CC(C(=O)NC1CC1)S(=O)(=O)c1cc2c(cc1Cl)OCCO2` (stereo not drawn): the cytotoxicity at 70.5 h was -8.64%.
Turning to `CCn1ccnc1SCCn1cnc2ccsc2c1=O`, the cytotoxicity at 70.5 h was -10%.
Next, `CC(C)NC(=O)C(C)S(=O)(=O)c1cc2c(cc1Cl)OCCO2` (stereo not drawn): -7.06%; `COc1cncc(N2CCN(Cc3ccncc3Cl)CC2)n1`: -9.33%; `Cc1nsc(NCc2ccc(CS(=O)(=O)NC(C)C)cc2)n1`: -9.39%.
Next, `Cn1cc(CNc2cnn(CC3CCCO3)c2)c(-c2ccncc2)n1` (stereo not drawn): 4.43%; `Cc1ccc(C)c(OCC(O)Cn2ncc3cnn(C)c(=O)c32)c1` (stereo not drawn): 6.69%; `Cc1nsc(NCc2ccc(S(=O)(=O)N(C)C(C)C)cc2)n1`: 16.6%.
In the case of `COC(=O)C1CCCCN1Cc1cccc(C(=O)NCc2ccco2)c1` (stereo not drawn) it was -10.4%.
On to `CC(C)OCCOCc1cccc(NC(=O)N2CCCC(O)C2)c1` (stereo not drawn), for which the cytotoxicity at 70.5 h was -9.87%.
Regarding `COc1ccc(CNC2CCN(c3ccccc3)C2)c(OC)c1OC` (stereo not drawn), the cytotoxicity at 70.5 h is 19.7%.
Consider `COc1cncc(N2CCN(Cc3ccco3)CC2)n1`, for which the cytotoxicity at 70.5 h is -12.1%.
Next, `CCN(CCNC(=O)C1CCN(C(C)=O)CC1)c1ccccc1C`: -12.4%; `CCc1nc(CN2CCN(C(=O)c3csc(C(C)C)n3)CC2)no1`: 33.2%.
Consider `Cc1ccccc1CS(=O)(=O)CC(=O)N(C)Cc1cccc(F)c1`, for which the cytotoxicity at 70.5 h is -6.34%.
In the case of `Cc1noc(C)c1CS(=O)(=O)CC(=O)N(C)Cc1cccc(F)c1` it was -3.7%; in that of `CC(=O)NC1(C(=O)N(C)Cc2c(C)noc2C)CCCCC1`, 20.8%; in that of `COc1ccccc1N1CCC(CNS(=O)(=O)c2cccs2)C1` (stereo not drawn), -6.04%.
Consider `CC(C)C(=O)N1CCC(NCc2c(C(C)C)nn(C)c2N(C)C)CC1`, for which the cytotoxicity at 70.5 h is -5.89%.
In the case of `O=C1OCCN1CCCN1CCCC1c1ccc(O)cc1` (stereo not drawn) it was -3.89%; in that of `COC(=O)C(NC(=O)COC1CCCCC1)c1ccccc1` (stereo not drawn), 5.11%; in that of `CNC(=O)C(C)S(=O)(=O)Cc1csc(-c2cccs2)n1` (stereo not drawn), -7.57%.
As for `CCN1CCN(c2ccc(C(=O)NCCn3ccnc3)cc2F)CC1`, the cytotoxicity at 70.5 h was -3.77%.
`CN(C(=O)CN1CCc2nn(C)c(=O)cc2C1)c1nccs1`: the cytotoxicity at 70.5 h was -4.13%.
In the case of `CCCn1nc2c(cc1=O)CN(CC(=O)N(C)c1nccs1)CC2` it was -4.23%.
Consider `Cc1cc(C(=O)NS(=O)(=O)Cc2ccon2)c(C)n1C(C)C`, for which the cytotoxicity at 70.5 h is -4.61%.
In the case of `CNC(=O)C1CCCN(C(=O)NCCC2Cc3ccccc3C2)C1` (stereo not drawn) it was -1.76%; in that of `Cc1cc(C(=O)NS(=O)(=O)Cc2ccon2)c(C)o1`, -3.93%.
Turning to `COCc1nc(C(=O)N2CCN(Cc3ccsc3)CC2)cs1`, the cytotoxicity at 70.5 h is -0.448%.
Next, `COCCN1CCC(NCc2c(C(C)C)nn(C)c2N(C)C)CC1`: 24.2%; `CC(C)c1nn(C)c(N(C)C)c1CNC1CCN(CC2CC2)CC1`: 0.338%.
Take `c1cc(CN2CCSC3(CCCCC3)C2)no1`: the cytotoxicity at 70.5 h is -1.3%.
For `c1cc(CN2CCOC3(CCCC3)C2)no1`, the cytotoxicity at 70.5 h is -2.72%.
`COc1ccccc1N1CCC(CNCc2c(C)nn(C)c2OC)C1` (stereo not drawn): the cytotoxicity at 70.5 h came out at 0.53%.
In the case of `CC(=O)N1CCCN(C(C)c2ccc(Br)cc2)CC1` (stereo not drawn) it was 17.2%.
Turning to `CCCc1nc(CNC2(c3nccs3)CCCC2)cs1`, the cytotoxicity at 70.5 h amounted to 4.59%.
In the case of `c1cc(CN2CCCC2)ccc1CNc1cncc2nnnn12`, the cytotoxicity at 70.5 h is -4.34%.
In the case of `c1cc(N2CCSCC2)ccc1CNc1cncc2nnnn12` it was -12.4%; in that of `c1ccc(CN2CCCC2)c(CNc2cncc3nnnn23)c1`, -7.51%; in that of `CN(CC(N)=O)C(=O)c1csc(Br)c1`, -7.59%.
For the molecule `CC(C)(NC(=O)c1ccc(-c2ccccc2F)s1)C(N)=O`, the cytotoxicity at 70.5 h was found to be 12.6%.
Take `COc1cccc(CN(C)S(=O)(=O)N2CCOCC2)c1`: the cytotoxicity at 70.5 h amounted to 2.16%.
Regarding `CS(=O)(=O)NCC1CCCN(C(=O)Nc2cccnc2N2CCCC2)C1` (stereo not drawn), the cytotoxicity at 70.5 h is -0.725%.
As for `CS(=O)(=O)NCC1CCCN(C(=O)Nc2ccccc2Cl)C1` (stereo not drawn), the cytotoxicity at 70.5 h was 1.65%.
As to `O=C(NCc1ccc(OCC2CC2)nc1)c1c(F)cccc1F`, the cytotoxicity at 70.5 h was -3.71%.
As to `CN(Cc1cnn(C)c1)C(=O)c1ccc(=O)n(C)n1`, the cytotoxicity at 70.5 h is -1.81%.
Next, `CS(=O)(=O)NCC1CCCCN1C(=O)Nc1cccnc1N1CCCC1` (stereo not drawn): 39.8%; `CC(C)c1nn(C)c(N(C)C)c1CNC1CCN(C2CC2)CC1`: -2.94%.
